Measurements as given in PubChem BioAssay AID328 (DTP/NCI, 2004).
“And” between values parts separate entries of the source, which are not always exact repeats. Equal entries are not always repeated. Inconclusive results and toxic doses are left out.

Test system: BDF1 mice, P388 leukemia ip, median survival T/C
Test: NCI In Vivo Anticancer Drug Screen. Data for tumor model P388 Leukemia (intraperitoneal) in B6D2F1 (BDF1) mice
Settings: endpoint: median survival time, higher = longer survival
How it was run: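 Read-out is survival of treated animals expressed relative to the vehicle group, as a T/C ratio.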

[1] = dose: 100.0 mg/kg/injection, schedule: Q04DX003 (ip), vehicle: saline with Tween-80
[2] = dose: 200.0 mg/kg/injection, schedule: Q04DX003 (ip), vehicle: saline with Tween-80
[3] = dose: 400.0 mg/kg/injection, schedule: Q04DX003 (ip), vehicle: saline with Tween-80
[4] = dose: 50.0 mg/kg/injection, schedule: Q01DX009 (ip), vehicle: saline with Tween-80
[5] = dose: 100.0 mg/kg/injection, schedule: Q01DX009 (ip), vehicle: saline with Tween-80
[6] = dose: 200.0 mg/kg/injection, schedule: Q01DX009 (ip), vehicle: saline with Tween-80
[7] = dose: 15.0 mg/kg/injection, schedule: Q01DX009 (ip), vehicle: saline with Tween-80
[8] = dose: 25.0 mg/kg/injection, schedule: Q01DX009 (ip), vehicle: saline with Tween-80
[9] = dose: 132.0 mg/kg/injection, schedule: Q04DX003 (ip), vehicle: saline with Tween-80
[10] = dose: 6.25 mg/kg/injection, schedule: Q01DX009 (ip), vehicle: saline
[11] = dose: 12.5 mg/kg/injection, schedule: Q01DX009 (ip), vehicle: saline
[12] = dose: 25.0 mg/kg/injection, schedule: Q01DX009 (ip), vehicle: saline
[13] = dose: 12.5 mg/kg/injection, schedule: Q01DX009 (ip), vehicle: Klucel (hydroxypropylcellulose) (HPC)
[14] = dose: 25.0 mg/kg/injection, schedule: Q01DX009 (ip), vehicle: Klucel (hydroxypropylcellulose) (HPC)
[15] = dose: 12.5 mg/kg/injection, schedule: Q01DX009 (ip), vehicle: saline with Tween-80

Nc1nc2nc(-c3ccccc3)nc(N)c2nc1Sc1ccc(Cl)cc1 was tested, and the T/C [1] was 94 % of control, the T/C [2] was 103 % of control and the T/C [3] was 103 % of control.

C=CCn1nnc(-c2ccccc2)n1 was tested, and the T/C [4] was 117 % of control, the T/C [5] was 117 % of control and the T/C [6] was 119 % of control.

For N#Cc1cnc2nc1NCCCCCCC2, the T/C [1] was 86 % of control.

In the case of O=[N+]([O-])c1ccc(N2CCCCCC2)c2c1no[n+]2[O-], the T/C [7] is reported as 90 % of control, the T/C (dose: 30.0 mg/kg/injection, schedule: Q01DX009 (ip), vehicle: saline with Tween-80) is reported as 95 % of control and the T/C (dose: 60.0 mg/kg/injection, schedule: Q01DX009 (ip), vehicle: saline with Tween-80) is reported as 95 % of control.

In the case of CC1(C)N=C(N)N=C(N)N1c1cccc(OCCCOc2ccccc2)c1, the T/C (dose: 50.0 mg/kg/injection, schedule: Q01DX001 (ip), vehicle: Klucel (hydroxypropylcellulose) (HPC)) is reported as 106 % of control.

For CCOC(=O)C1(C(C)C)OC2(O)CCCCCN2C1=O (centres undefined), the T/C [4] was 95 % of control, the T/C [5] was 109 % of control and the T/C [6] was 104 % of control.

For CC(C)C1=CC2=C[C@H](O)[C@H]3C(C)(C)CCC[C@]3(C)C2=C(O)C1=O, the T/C (dose: 2.0 mg/kg/injection, schedule: Q01DX010 (ip), vehicle: carboxymethylcellulose (CMC)) was 100 % of control, the T/C (dose: 2.2 mg/kg/injection, schedule: Q01DX010 (ip), vehicle: carboxymethylcellulose (CMC)) was 112 % of control and the T/C (dose: 3.3 mg/kg/injection, schedule: Q01DX010 (ip), vehicle: carboxymethylcellulose (CMC)) was 116 % of control. For the same molecule, the T/C (dose: 5.0 mg/kg/injection, schedule: Q01DX010 (ip), vehicle: carboxymethylcellulose (CMC)) was 120 % of control, the T/C (dose: 10.0 mg/kg/injection, schedule: Q01DX010 (ip), vehicle: carboxymethylcellulose (CMC)) was 100 % of control and the T/C (dose: 10.0 mg/kg/injection, schedule: Q01DX010 (ip), vehicle: other) was 115 % of control. For the same molecule, the T/C (dose: 20.0 mg/kg/injection, schedule: Q01DX010 (ip), vehicle: carboxymethylcellulose (CMC)) was 110 % of control.

For C/C(=C\c1ccc2c(c1)OCO2)[N+](=O)[O-], the T/C (dose: 85.0 mg/kg/injection, schedule: Q04DX003 (ip), vehicle: Klucel (hydroxypropylcellulose) (HPC)) was 118 % of control, the T/C (dose: 100.0 mg/kg/injection, schedule: Q04DX003 (ip), vehicle: Klucel (hydroxypropylcellulose) (HPC)) was 110 % of control and the T/C (dose: 135.0 mg/kg/injection, schedule: Q04DX003 (ip), vehicle: Klucel (hydroxypropylcellulose) (HPC)) was 109 % of control. For the same molecule, the T/C (dose: 200.0 mg/kg/injection, schedule: Q04DX003 (ip), vehicle: Klucel (hydroxypropylcellulose) (HPC)) was 100 % of control and 109 % of control.

With c1ccc(-c2nc3ncccn3n2)cc1 the T/C [8] was 97 % of control, the T/C [4] was 106 % of control and 111 % of control and the T/C [5] was 104 % of control and 120 % of control. For the same molecule, the T/C [6] was 104 % of control and 112 % of control.

Cc1ccccc1N1C(=O)CSC1=S was tested, and the T/C [1] was 100 % of control, the T/C [9] was 90 % of control and the T/C [2] was 100 % of control. The T/C (dose: 300.0 mg/kg/injection, schedule: Q04DX003 (ip), vehicle: saline with Tween-80) was 100 % of control and the T/C [3] was 90 % of control.

With Cc1ccnc(=O)[nH]1 the T/C (dose: 3.13 mg/kg/injection, schedule: Q01DX009 (ip), vehicle: saline) was 103 % of control, the T/C [10] was 115 % of control and the T/C [11] was 99 % of control. The T/C [12] was 105 % of control.

For CN(C)/N=N/c1nc(Cc2ccccc2)[nH]c1C(N)=O, the T/C (dose: 177.0 mg/kg/injection, schedule: Q01DX009 (ip), vehicle: saline with Tween-80) was 100 % of control, the T/C (dose: 266.0 mg/kg/injection, schedule: Q01DX009 (ip), vehicle: saline with Tween-80) was 154 % of control and the T/C (dose: 400.0 mg/kg/injection, schedule: Q01DX009 (ip), vehicle: saline with Tween-80) was 150 % of control. The T/C (dose: 600.0 mg/kg/injection, schedule: Q01DX009 (ip), vehicle: saline with Tween-80) was 195 % of control.

With COc1cccc(CCCC(=O)C(C)(C)S(C)=O)c1 (centres undefined) the T/C [4] was 103 % of control, the T/C [5] was 95 % of control and the T/C [6] was 103 % of control.

With c1ccc2c[n+]3ccccc3cc2c1 the T/C [10] was 95 % of control, the T/C (dose: 8.75 mg/kg/injection, schedule: Q04DX003 (ip), vehicle: saline) was 100 % of control and the T/C [13] was 100 % of control. The T/C [11] was 104 % of control, the T/C (dose: 17.5 mg/kg/injection, schedule: Q04DX003 (ip), vehicle: saline) was 95 % of control and the T/C [14] was 95 % of control.

In the case of O=C(Nc1ccc(NC(=O)c2ccc(C3=NCCCN3)cc2)cc1)Nc1ccc(C2=NCCCN2)cc1, the T/C (dose: 2.5 mg/kg/injection, schedule: Q01DX009 (ip), vehicle: saline with Tween-80) is reported as 113 % of control, the T/C (dose: 5.0 mg/kg/injection, schedule: Q01DX009 (ip), vehicle: saline with Tween-80) is reported as 168 % of control and the T/C (dose: 5.0 mg/kg/injection, schedule: Q04DX003 (ip), vehicle: saline with Tween-80) is reported as 109 % of control. The T/C (dose: 6.6 mg/kg/injection, schedule: Q01DX009 (ip), vehicle: saline with Tween-80) was 175 % of control, the T/C (dose: 10.0 mg/kg/injection, schedule: Q01DX009 (ip), vehicle: saline with Tween-80) was 233 % of control and 204 % of control and the T/C (dose: 10.0 mg/kg/injection, schedule: Q04DX003 (ip), vehicle: saline with Tween-80) was 109 % of control. For the same molecule, the T/C [7] was 233 % of control.

For CCCCCCCCCCCC[n+]1ccc(C)cc1C, the T/C (dose: 62.0 micrograms/kg/injection, schedule: Q01DX009 (ip), vehicle: saline) was 107 % of control, the T/C (dose: 125.0 micrograms/kg/injection, schedule: Q01DX009 (ip), vehicle: saline) was 102 % of control and the T/C (dose: 250.0 micrograms/kg/injection, schedule: Q01DX009 (ip), vehicle: saline) was 113 % of control. The T/C (dose: 500.0 micrograms/kg/injection, schedule: Q01DX009 (ip), vehicle: saline) was 116 % of control.

For Cc1ccnc(NC(=O)Nc2cc(Cl)ccc2Cl)c1, the T/C [13] was 101 % of control, the T/C [14] was 103 % of control and the T/C (dose: 50.0 mg/kg/injection, schedule: Q01DX009 (ip), vehicle: Klucel (hydroxypropylcellulose) (HPC)) was 120 % of control.

For O=P(OCc1ccccc1)(N(CCCl)CCCl)N1CCN(P(=O)(OCc2ccccc2)N(CCCl)CCCl)CC1 (centres undefined), the T/C [9] was 172 % of control and the T/C [2] was 154 % of control and 172 % of control.

In the case of O=C(O)CSC(CC(=O)O)C(F)(F)C(F)(F)C(F)(F)F (centres undefined), the T/C [12] is reported as 90 % of control, the T/C (dose: 25.0 mg/kg/injection, schedule: Q04DX003 (ip), vehicle: saline) is reported as 109 % of control and the T/C (dose: 50.0 mg/kg/injection, schedule: Q01DX009 (ip), vehicle: saline) is reported as 100 % of control. For the same molecule, the T/C (dose: 50.0 mg/kg/injection, schedule: Q04DX003 (ip), vehicle: saline) was 109 % of control, the T/C (dose: 75.0 mg/kg/injection, schedule: Q01DX009 (ip), vehicle: saline) was 110 % of control and the T/C (dose: 100.0 mg/kg/injection, schedule: Q01DX009 (ip), vehicle: saline) was 95 % of control and 115 % of control. The T/C (dose: 100.0 mg/kg/injection, schedule: Q04DX003 (ip), vehicle: saline) was 109 % of control, the T/C (dose: 150.0 mg/kg/injection, schedule: Q01DX009 (ip), vehicle: saline) was 120 % of control and the T/C (dose: 200.0 mg/kg/injection, schedule: Q01DX009 (ip), vehicle: saline) was 120 % of control. For the same molecule, the T/C (dose: 300.0 mg/kg/injection, schedule: Q01DX009 (ip), vehicle: saline) was 110 % of control and the T/C (dose: 400.0 mg/kg/injection, schedule: Q04DX003 (ip), vehicle: saline) was 122 % of control.

For CCOC(=O)Nc1nc2ccccc2[nH]1, the T/C (dose: 6.25 mg/kg/injection, schedule: Q01DX009 (ip), vehicle: saline with Tween-80) was 98 % of control, the T/C [15] was 116 % of control and the T/C [8] was 109 % of control. The T/C [4] was 105 % of control.

In the case of C=CCCCCCCCCC(=O)N(C)OC, the T/C (dose: 25.0 mg/kg/injection, schedule: Q01DX001 (ip), vehicle: saline with Tween-80) is reported as 95 % of control, the T/C (dose: 50.0 mg/kg/injection, schedule: Q01DX001 (ip), vehicle: saline with Tween-80) is reported as 109 % of control and the T/C (dose: 100.0 mg/kg/injection, schedule: Q01DX001 (ip), vehicle: saline with Tween-80) is reported as 118 % of control.

With OC(CCCCC(O)(c1ccccc1)c1ccccc1)(c1ccccc1)c1ccccc1 the T/C (dose: 100.0 mg/kg/injection, schedule: Q01DX001 (ip), vehicle: Klucel (hydroxypropylcellulose) (HPC)) was 105 % of control, the T/C (dose: 200.0 mg/kg/injection, schedule: Q01DX001 (ip), vehicle: Klucel (hydroxypropylcellulose) (HPC)) was 115 % of control and the T/C (dose: 400.0 mg/kg/injection, schedule: Q01DX001 (ip), vehicle: Klucel (hydroxypropylcellulose) (HPC)) was 100 % of control.

For NC(=S)N/N=C/c1ccc(OC(=O)Cc2ccccc2)cn1, the T/C [15] was 150 % of control.
